Laboratory results: ChEMBL document CHEMBL3734664, “Noncovalent Mutant Selective Epidermal Growth Factor Receptor Inhibitors: A Lead Optimization Case Study” (J Med Chem, 2015)

Assays:
[1] = Plasma clearance in rat at 5 mg/kg, iv; format: ADME, organism-based
[2] = tested on: Rattus norvegicus; test: Unbound plasma clearance in rat at 5 mg/kg, iv; format: ADME, organism-based; details: in vivo
[3] = tested on: NCI-H1975; test: Antiproliferative activity against human NCI-H1975 cells expressing EGFR T790M/L858R double mutant after 72 hrs by luminescence assay; format: functional, cell-based; details: NCI-H1975, 72 h
[4] = molecular target: Epidermal growth factor receptor (Homo sapiens, UniProt P00533, L858R/T790M)
Epidermal growth factor receptor (Homo sapiens, UniProt P00533, L858R/T790M), sequence (P00533 25-1210 T790M/L858R limits assumed): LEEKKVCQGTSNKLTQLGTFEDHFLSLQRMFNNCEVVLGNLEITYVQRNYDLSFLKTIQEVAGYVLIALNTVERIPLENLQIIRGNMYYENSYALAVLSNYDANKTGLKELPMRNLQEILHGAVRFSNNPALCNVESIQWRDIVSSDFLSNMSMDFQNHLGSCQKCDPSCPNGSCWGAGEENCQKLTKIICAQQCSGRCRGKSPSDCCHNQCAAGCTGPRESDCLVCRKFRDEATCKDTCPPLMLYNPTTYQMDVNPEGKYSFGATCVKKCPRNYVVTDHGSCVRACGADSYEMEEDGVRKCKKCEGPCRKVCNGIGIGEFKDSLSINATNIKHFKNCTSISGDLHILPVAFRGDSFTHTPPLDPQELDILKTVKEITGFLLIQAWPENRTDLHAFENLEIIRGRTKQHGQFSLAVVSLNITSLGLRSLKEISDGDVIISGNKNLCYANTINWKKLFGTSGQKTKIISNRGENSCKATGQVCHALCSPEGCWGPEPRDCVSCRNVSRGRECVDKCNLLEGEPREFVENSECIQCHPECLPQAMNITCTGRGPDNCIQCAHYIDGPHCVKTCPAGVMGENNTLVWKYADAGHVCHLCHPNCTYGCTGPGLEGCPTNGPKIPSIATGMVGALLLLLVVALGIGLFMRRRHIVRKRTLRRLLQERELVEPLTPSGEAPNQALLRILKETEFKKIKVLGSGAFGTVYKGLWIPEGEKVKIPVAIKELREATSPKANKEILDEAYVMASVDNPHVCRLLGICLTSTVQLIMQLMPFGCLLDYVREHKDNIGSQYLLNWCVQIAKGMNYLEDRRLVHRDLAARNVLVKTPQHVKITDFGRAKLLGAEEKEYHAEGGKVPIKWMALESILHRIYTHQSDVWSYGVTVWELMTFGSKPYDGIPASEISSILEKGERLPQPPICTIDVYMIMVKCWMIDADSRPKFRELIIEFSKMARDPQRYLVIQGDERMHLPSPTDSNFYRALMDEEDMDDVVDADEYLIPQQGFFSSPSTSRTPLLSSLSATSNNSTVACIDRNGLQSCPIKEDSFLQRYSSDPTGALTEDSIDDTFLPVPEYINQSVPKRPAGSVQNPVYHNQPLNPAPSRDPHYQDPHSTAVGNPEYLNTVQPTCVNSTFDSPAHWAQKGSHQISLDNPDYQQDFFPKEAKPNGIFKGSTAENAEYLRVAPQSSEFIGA

[5] = molecular target: T1, Epidermal growth factor receptor (Homo sapiens, UniProt P00533)
T1 sequence (P00533 whole entry): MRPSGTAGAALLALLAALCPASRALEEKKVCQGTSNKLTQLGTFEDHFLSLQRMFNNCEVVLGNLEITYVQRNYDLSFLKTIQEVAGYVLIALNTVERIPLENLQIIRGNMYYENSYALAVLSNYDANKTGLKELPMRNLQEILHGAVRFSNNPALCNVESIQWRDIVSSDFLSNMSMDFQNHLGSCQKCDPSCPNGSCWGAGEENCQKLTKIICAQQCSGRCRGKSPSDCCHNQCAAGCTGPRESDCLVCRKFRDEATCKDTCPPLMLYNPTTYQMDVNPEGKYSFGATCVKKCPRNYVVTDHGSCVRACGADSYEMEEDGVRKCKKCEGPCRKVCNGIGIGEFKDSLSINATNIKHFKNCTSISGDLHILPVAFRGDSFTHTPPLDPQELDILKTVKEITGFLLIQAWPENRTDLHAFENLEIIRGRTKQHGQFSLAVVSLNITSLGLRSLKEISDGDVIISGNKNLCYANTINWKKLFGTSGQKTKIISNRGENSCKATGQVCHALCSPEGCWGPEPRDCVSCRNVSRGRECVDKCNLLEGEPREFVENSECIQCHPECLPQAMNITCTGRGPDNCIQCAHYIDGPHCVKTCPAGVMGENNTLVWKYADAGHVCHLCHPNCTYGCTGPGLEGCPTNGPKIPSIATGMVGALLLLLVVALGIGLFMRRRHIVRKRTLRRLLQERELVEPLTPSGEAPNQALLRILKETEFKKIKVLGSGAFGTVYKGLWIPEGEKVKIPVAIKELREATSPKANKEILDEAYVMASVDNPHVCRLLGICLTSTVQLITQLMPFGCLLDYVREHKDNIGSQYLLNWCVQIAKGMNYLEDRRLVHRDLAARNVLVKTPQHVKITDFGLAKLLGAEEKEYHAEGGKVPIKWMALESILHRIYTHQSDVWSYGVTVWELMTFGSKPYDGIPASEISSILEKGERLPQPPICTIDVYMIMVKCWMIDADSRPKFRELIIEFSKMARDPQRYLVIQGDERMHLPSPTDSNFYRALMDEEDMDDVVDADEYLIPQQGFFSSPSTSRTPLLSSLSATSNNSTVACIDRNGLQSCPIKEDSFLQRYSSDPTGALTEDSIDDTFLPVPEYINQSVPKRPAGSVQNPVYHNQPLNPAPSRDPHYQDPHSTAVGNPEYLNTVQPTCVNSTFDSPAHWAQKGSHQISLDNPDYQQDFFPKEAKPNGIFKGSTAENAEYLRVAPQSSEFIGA

[6] = physchem; details: buffer, pH 7.4, logD
Description: (§1) Lipophilicity, log D of the compound at pH 7.4 by microscale shake flask method

[7] = buffer, pH 7.4
Description: as §1

[8] = Plasma clearance in rat at 1 mg/kg, iv; format: ADME, organism-based
[9] = tested on: Rattus norvegicus; test: Unbound plasma clearance in rat at 1 mg/kg, iv; format: ADME, organism-based; details: in vivo
[10] = molecular target: T1, Epidermal growth factor receptor; remark: listed apart in the source
Description: Inhibition of EGFR phosphorylation in human NCI-H292 cells preincubated for 1 hr followed by stimulation with EGF for 8 mins by electrochemiluminescent immunoassay

[11] = tested on: Liver microsome; test: Stability in human liver microsomes; format: ADME
[12] = tested on: Hepatocyte; test: Stability in human hepatocytes; format: ADME, cell-based
[13] = Plasma clearance in rat at 0.5 mg/kg, iv; format: ADME, organism-based
[14] = tested on: Rattus norvegicus; test: Unbound plasma clearance in rat at 0.5 mg/kg, iv; format: ADME, organism-based; details: in vivo
[15] = molecular target: T2, Epidermal growth factor receptor (Homo sapiens, UniProt P00533, 746-750DEL/T790M); test: Inhibition of human EGFR T790M/del (746 to 750) deletion mutant using Fl-EEPLYWSFPAKKK-CONH2 as substrate preincubated for 30 mins followed by addition of substrate measured after 30 mins by Morrison plot analysis; format: protein assay; details: read-out: Ki(app)
T2 sequence (P00533 whole entry, looked up, stated change not applied): as the sequence (P00533 whole entry) above

[16] = tested on: Liver microsome; test: Drug metabolism in rat liver microsomes assessed as cis-3-Fluoro-1-{4-[2-((R)-1-hydroxyethyl)-1-((S)-2,2,2-trifluoro-1-methylethyl)-1Himidazo[4,5-c]pyridin-6-ylamino]pyrimidin-2-yl}piperidin-4-ol; format: ADME
[17] = tested on: Hepatocyte; test: Drug metabolism in rat hepatocytes assessed as cis-3-Fluoro-1-{4-[2-((R)-1-hydroxyethyl)-1-((S)-2,2,2-trifluoro-1-methylethyl)-1Himidazo[4,5-c]pyridin-6-ylamino]pyrimidin-2-yl}piperidin-4-ol; format: ADME, cell-based
[18] = tested on: NCI-H292; test: Antiproliferative activity against human NCI-H292 cells expressing wild type EGFR after 72 hrs by luminescence assay; format: functional, cell-based; details: NCI-H292, 72 h
[19] = Antiproliferative activity against erlotinib-resistant human PC9 cells expressing EGFR with ex19del and T790M mutations after 72 hrs by luminescence assay; format: functional, cell-based; details: PC-9, 72 h
[20] = Half life in rat; format: ADME, organism-based; details: in vivo
[21] = Volume of distribution at steady state in rat; format: ADME, organism-based; details: in vivo, read-out: Vdss
[22] = Oral bioavailability in rat; format: ADME, organism-based; details: in vivo
[23] = molecular target: T2, Epidermal growth factor receptor; test: Inhibition of EGFR T790M/del (746 to 750) deletion mutant phosphorylation in erlotinib-resistant human PC9 cells preincubated for 1 hr followed by stimulation with EGF for 8 mins by electrochemiluminescent immunoassay; format: cell-based, PC-9

| Compound | Ki [4] | Ki [5] | logD [6] | further results |
| --- | --- | --- | --- | --- |
| CCC(C)n1cnc2cnc(Nc3ccnc(N4CCC(OC)CC4)n3)cc21 (racemic; form 2) | 17 nM | – | – | logD [7]: 2.9 |
| CCn1cnc2cnc(Nc3ccnc(N4CCC(OC)CC4)n3)cc21 | 201 nM | – | 2.4 | – |
| CCC(C)n1cnc2cnc(Nc3ccnc(N4CCC(OC)CC4)n3)cc21 (racemic; form 3) | 22 nM | – | – | – |
| COC1CCN(c2nccc(Nc3cc4c(cn3)ncn4CC(F)(F)F)n2)CC1 | 71 nM | – | 2.8 | – |
| COC1CCN(c2nccc(Nc3cc4c(cn3)ncn4C3CCCCC3)n2)CC1 | 18 nM | – | 3.4 | – |
| COC1CCN(c2nccc(Nc3cc4c(cn3)ncn4C(C)C(F)(F)F)n2)CC1 (racemic) | 27 nM | – | 2.7 | – |
| Cc1nc2cnc(Nc3ccnc(/C=C/C(C)(C)C(N)=O)n3)cc2n1C(C)C | 196 nM | > 1500 nM | 2.2 | Stability [12]: Stable; Stability [11]: Stable |
| COC1CCN(c2nccc(Nc3cc4c(cn3)ncn4C3CCOC3)n2)CC1 (racemic) | 149 nM | – | 1.8 | – |
| COC1CCN(c2nccc(Nc3cc4c(cn3)ncn4C3CCOCC3)n2)CC1 | 76 nM | – | 2.1 | – |
| Cc1nc2cnc(Nc3ccnc(/C=C/C(C)(C)O)n3)cc2n1C(C)C | – | > 2500 nM | 2 | clearance [13]: 50 mL/min/kg; CL free [14]: 200 mL/min/kg |
| Cc1nc2cnc(Nc3ccnc(SCC(C)(C)C(N)=O)n3)cc2n1C(C)C | 658 nM | > 2500 nM | 1.9 | – |
| COC1CCN(c2nccc(Nc3cc4c(cn3)ncn4C3CC3)n2)CC1 | 87 nM | – | 2.3 | – |
| COC1CCN(c2nccc(Nc3cc4c(cn3)ncn4C3CCCC3)n2)CC1 | – | – | 2.9 | – |
| CO[C@H]1CCN(c2nccc(Nc3cc4c(cn3)nc([C@@H](C)O)n4[C@H](C)C(F)(F)F)n2)C[C@H]1F | 1.1 nM | 122 nM | 2.2 | Ki [15]: 7 nM; clearance [1]: 23 mL/min/kg; CL free [2]: 334 mL/min/kg; Drug metabolism [16]: metabolite_detected; Drug metabolism [17]: metabolite_detected; EC50 [3]: 112 nM; EC50 [18]: 7.8 µM; EC50 [19]: 90 nM; half-life [20]: 102 min; Vd [21]: 3.7 L/kg; bioavailability [22]: 85%; IC50 [23]: 27 nM; IC50 [10]: > 10 µM |
| COC1CCN(c2nccc(Nc3cc4c(cn3)ncn4C3CCC3)n2)CC1 | 48 nM | – | 2.8 | – |
| COC1CCN(c2nccc(Nc3cc4[nH]cnc4cn3)n2)CC1 | – | 1200 nM | 1.9 | EC50 [3]: 7000 nM |

Continued, in another order:

| Ki [4] | Ki [5] | logD [6] | Compound | further results |
| --- | --- | --- | --- | --- |
| 13 nM | 910 nM | 1.5 | Cc1nc2cnc(Nc3ccnc(N4CC[C@H](O)[C@H](F)C4)n3)cc2n1C(C)C (racemic) | clearance [1]: 90 mL/min/kg; CL free [2]: 545 mL/min/kg; EC50 [3]: 1600 nM |
| 4.3 nM | 150 nM | – | CO[C@H]1CCN(c2nccc(Nc3cc4c(cn3)nc(CO)n4C(C)C)n2)C[C@H]1F (racemic) | clearance [8]: 107 mL/min/kg; CL free [9]: 584 mL/min/kg; EC50 [3]: 880 nM; IC50 [10]: > 10 µM |
| 2.7 nM | 1080 nM | 2.3 | CO[C@H]1CCN(c2nccc(Nc3cc4c(cn3)nc(C)n4C(C)C)n2)C[C@H]1F (racemic) | EC50 [3]: 560 nM; IC50 [10]: > 10 µM |
| – | – | 0.1 | COC1(CCN)CCN(c2nccc(Nc3cc4c(cn3)nc(C)n4C(C)C)n2)CC1 | Stability [11]: Stable |
| 14 nM | – | 2.8 | CCC(C)n1cnc2cnc(Nc3ccnc(N4CCC(OC)CC4)n3)cc21 (racemic; form 1) | – |
| 34 nM | – | 1.8 | Cc1nc2cnc(Nc3ccnc(N4CCC(O)CC4)n3)cc2n1C(C)C | Stability [12]: Unstable |
| 77 nM | – | 2.4 | COCC1(OC)CCN(c2nccc(Nc3cc4c(cn3)nc(C)n4C(C)C)n2)CC1 | – |
| – | – | 2.8 | CO[C@H]1CCN(c2nccc(Nc3cc4c(cn3)nc(CO)n4C(C)C)n2)CC1(F)F (racemic) | EC50 [3]: 2380 nM |
| 16 nM | > 0.53 nM | 1.6 | CC(C)n1c(CO)nc2cnc(Nc3ccnc(N4CC[C@H](O)[C@H](F)C4)n3)cc21 (racemic) | clearance [13]: 151 mL/min/kg; CL free [14]: 382 mL/min/kg; EC50 [3]: > 10000 nM; IC50 [10]: > 10 µM |
| 50 nM | – | 2 | COC1(CCO)CCN(c2nccc(Nc3cc4c(cn3)nc(C)n4C(C)C)n2)CC1 | – |
| 9.5 nM | > 403 nM | 2.6 | Cc1nc2cnc(Nc3ccnc(N4CC[C@H](O)C(F)(F)C4)n3)cc2n1C(C)C (racemic) | EC50 [3]: 1700 nM; IC50 [10]: > 10 µM |
| 19 nM | 400 nM | 2.3 | COC1CCN(c2nccc(Nc3cc4c(cn3)nc(CO)n4C(C)C)n2)CC1 | EC50 [3]: 6500 nM |
| – | 1820 nM | 1.4 | Cc1nc2cnc(Nc3ccnc(NCC(C)(C)S(C)(=O)=O)n3)cc2n1C(C)C | Stability [12]: Stable; Stability [11]: Stable; clearance [8]: 158 mL/min/kg; CL free [9]: 707 mL/min/kg |
| 57 nM | 540 nM | – | CO[C@H]1CCN(c2nccc(Nc3cc4c(cn3)nc(CO)n4C(C)C)n2)C[C@@H]1F (racemic) | – |
| 151 nM | – | 1.7 | CC(C)n1cnc2cnc(Nc3ccnc(N4CCC(C(N)=O)CC4)n3)cc21 | – |
| 492 nM | – | 1.5 | COC1(CN(C)C)CCN(c2nccc(Nc3cc4c(cn3)nc(C)n4C(C)C)n2)CC1 | – |
| 124 nM | 681 nM | 1.6 | Cc1nc2cnc(Nc3ccnc(N4CCC(C)(C(N)=O)C4)n3)cc2n1C(C)C (stereo not drawn) | Stability [12]: Stable; Stability [11]: Stable |
| 24 nM | – | 1.7 | COC1(CO)CCN(c2nccc(Nc3cc4c(cn3)nc(C)n4C(C)C)n2)CC1 | Stability [11]: Stable |
| 64 nM | – | 1.6 | Cc1nc2cnc(Nc3ccnc(N4CCC(S(C)(=O)=O)CC4)n3)cc2n1C(C)C | Stability [12]: Stable; Stability [11]: Stable; clearance [13]: 165 mL/min/kg; CL free [14]: 934 mL/min/kg |
| 44 nM | 1840 nM | 2.5 | CO[C@H]1CCN(c2nccc(Nc3cc4c(cn3)nc(C)n4C(C)C)n2)C[C@@H]1F (racemic) | – |
| 52 nM | 2100 nM | 1.6 | Cc1nc2cnc(Nc3ccnc(OCC(C)(C)S(C)(=O)=O)n3)cc2n1C(C)C | Stability [12]: Stable; Stability [11]: Stable; clearance [13]: 53 mL/min/kg; CL free [14]: 156 mL/min/kg |
